# Experimental data: patent US4551445A, “Derivatives of arginine vasopressin antagonists” (The Medical College of Ohio, priority 1983, dated 1985)
# Starred links: 1 amine or outer side, 2 acyl side, 3 side chain; linkers in the order of their positions; H or OH if unused. Positions of bridges follow the written chain, without caps; N, C: chain ends. Non-standard residues stand in square brackets, D forms with d. Residues, ends and D or L forms follow the SMILES beside them. X1 = O=C(CC1(S[*:2])CCCCC1)[*:1]; Nle = CCCC[C@H](N)C(=O)O; Orn = NCCC[C@H](N)C(=O)O
# Assays:
# [1] = test system: antidiuretic response to arginine vasopressin (ADH); experiment: Anti-antidiuretic: antagonism of the antidiuretic response to subsequent injections of vasopressin; assay type: in vivo, rats
# Protocol: Activity as antidiuretic agonists was determined by intravenous injection of the compounds being evaluated in ethanol-anesthesized water-loaded rats in accordance with Sawyer, Endocrinology, vol. 63 (1958) at 694. Antagonism of the response to subsequent injections of vasopressin was tested as described by Sawyer et al., Science, vol. 212 (1981) at 49.
# (§1) Antagonistic potencies were determined and expressed as "effective doses" and pA2 values. The "effective dose" is defined as the dose (in nanomoles per kilogram) that reduces the response seen from 2x units of agonist injected 20 min after the dose of antagonist to the response with 1x units of agonist. Estimated in vivo "pA2 " values represent the negative logarithms of the effective doses, divided by the estimated volume of distribution (67 ml/kg).
# [2] = test system: vasopressor response to arginine vasopressin; experiment: Antivasopressor: antagonism to the vasopressor response (Dyckes et al.); assay type: in vivo; conditions: for Antivasopressor pA2: Table 1, estimated in vivo pA2; for Antagonistic Activities Antivasopressor pA2: table
# Protocol: Antagonism to the vasopressor response was estimated in accordance with Dyckes et al., J. Med. Chem., vol. 17 (1974) at 969. The values are expressed as pA2 values, defined as in Schild et al., Br. J. Pharmacol., vol. 2 (1947) at 189.
# as §1
# [3] = Table 2, estimated in vivo pA2, volume of distribution 67 ml/kg
SMILES,"Anti-Antidiuretic pA2 [1, 3]",other results
COc1ccc(C[C@H]2NC(=O)CC3(CCCCC3)SSC[C@@H](C(=O)N3CCC[C@H]3C(=O)N[C@@H](CCCNC(=N)N)C(=O)NCC(N)=O)NC(=O)[C@H](CC(N)=O)NC(=O)[C@H](C(C)C)NC(=O)[C@H](Cc3ccccc3)NC2=O)cc1 [d(CH2)5 --D-Tyr(Me)VAVP] ([dY](Me)FVNCPRG-NH2; linker N-5 via X1),,"Anti-Antidiuretic pA2 ([1]; Table 1, estimated in vivo pA2, volume of distribution 67 ml/kg): 7.77 ± 0.07; Antivasopressor pA2 [2]: 8.48 ± 0.08"
"COc1ccc(C[C@@H]2NC(=O)CC3(CCCCC3)SSC[C@@H](C(=O)N3CCC[C@H]3C(=O)N[C@@H](CCCNC(=N)N)C(=O)NCC(N)=O)NC(=O)[C@H](CC(N)=O)NC(=O)[C@H](CCC(N)=O)NC(=O)[C@H](Cc3ccccc3)NC2=O)cc1 [d(CH2)5 Tyr(Me)AVP, [1-(β-mercapto-β,β-cyclopentamethylenepropionic acid), 2-O-methyltyrosine]-arginine vasopressin, reference compound] (Y(Me)FQNCPRG-NH2; linker N-5 via X1)",,Antivasopressor pA2 [2]: 8.62 ± 0.03; Antagonistic Activities Antivasopressor pA2 [2]: 8.62 ± 0.03
"CCOc1ccc(C[C@@H]2NC(=O)CC3(CCCCC3)SSC[C@@H](C(=O)N3CCC[C@H]3C(=O)N[C@@H](CCCNC(=N)N)C(=O)NCC(N)=O)NC(=O)[C@H](CC(N)=O)NC(=O)[C@H](CCC(N)=O)NC(=O)[C@H](Cc3ccccc3)NC2=O)cc1 [d(CH2)5 Tyr(Et)AVP, reference compound] (Y(Et)FQNCPRG-NH2; linker N-5 via X1)",,Antagonistic Activities Antivasopressor pA2 [2]: 8.47 ± 0.04
"CC[C@@H](C)[C@H]1NC(=O)CC2(CCCCC2)SSC[C@@H](C(=O)N2CCC[C@H]2C(=O)N[C@@H](CCCNC(=N)N)C(=O)NCC(N)=O)NC(=O)[C@H](CC(N)=O)NC(=O)[C@H]([C@@H](C)CC)NC(=O)[C@H](Cc2ccccc2)NC1=O [d(CH2)5 D-Ile^2 Ile^4 AVP, [1-(β-mercapto-β,β-cyclopentamethylenepropionic acid), 2-D-isoleucine, 4-isoleucine]-arginine vasopressin] ([dI]FINCPRG-NH2; linker N-5 via X1)",8.04,
CC[C@@H](C)[C@H]1NC(=O)CC2(CCCCC2)SSC[C@@H](C(=O)N2CCC[C@H]2C(=O)N[C@@H](CCCN)C(=O)NCC(N)=O)NC(=O)[C@H](CC(N)=O)NC(=O)[C@H](C(C)C)NC(=O)[C@H](Cc2ccccc2)NC1=O [d(CH2)5 D-Ile^2 Val^4 Orn^8 VP] ([dI]FVNCP[Orn]G-NH2; linker N-5 via X1),7.66,
"N=C(N)NCCC[C@H](NC(=O)[C@@H]1CCCN1C(=O)[C@@H]1CSSC2(CCCCC2)CC(=O)N[C@H](Cc2ccccc2)C(=O)N[C@@H](Cc2ccccc2)C(=O)N[C@@H](CCCCN)C(=O)N[C@@H](CC(N)=O)C(=O)N1)C(=O)NCC(N)=O [d(CH2)5 D-Phe^2 Lys^4 AVP, [1-(β-mercapto-β,β-cyclopentamethylenepropionic acid), 2-D-phenylalanine, 4-lysine]-arginine vasopressin] ([dF]FKNCPRG-NH2; linker N-5 via X1)",7.22,
"CC(C)C[C@@H]1NC(=O)[C@H](Cc2ccccc2)NC(=O)[C@@H](Cc2ccccc2)NC(=O)CC2(CCCCC2)SSC[C@@H](C(=O)N2CCC[C@H]2C(=O)N[C@@H](CCCNC(=N)N)C(=O)NCC(N)=O)NC(=O)[C@H](CC(N)=O)NC1=O [d(CH2)5 D-Phe^2 Leu^4 AVP, [1-(β-mercapto-β,β-cyclopentamethylenepropionic acid), 2-D-phenylalanine, 4-leucine]-arginine vasopressin] ([dF]FLNCPRG-NH2; linker N-5 via X1)",6.07,
CCOc1ccc(C[C@@H]2NC(=O)CC3(CCCCC3)SSC[C@@H](C(=O)N3CCC[C@H]3C(=O)N[C@@H](CCCCN)C(=O)NCC(N)=O)NC(=O)[C@H](CC(N)=O)NC(=O)[C@H](C(C)C)NC(=O)[C@H](Cc3ccccc3)NC2=O)cc1 [d(CH2)5 Tyr(Et)^2 Val^4 Lys^8 VP] (Y(Et)FVNCPKG-NH2; linker N-5 via X1),,"Anti-Antidiuretic pA2 ([1]; rat, in vivo): 7.29"
"N=C(N)NCCC[C@H](NC(=O)[C@@H]1CCCN1C(=O)[C@@H]1CSSC2(CCCCC2)CC(=O)N[C@H](Cc2ccccc2)C(=O)N[C@@H](Cc2ccccc2)C(=O)N[C@@H](Cc2ccccc2)C(=O)N[C@@H](CC(N)=O)C(=O)N1)C(=O)NCC(N)=O [d(CH2)5 D-Phe^2 Phe^4 AVP, [1-(β-mercapto-β,β-cyclopentamethylenepropionic acid), 2-D-phenylalanine, 4-phenylalanine]-arginine vasopressin] ([dF]FFNCPRG-NH2; linker N-5 via X1)",6.07,
"CCCC[C@@H]1NC(=O)[C@H](Cc2ccccc2)NC(=O)[C@@H](Cc2ccccc2)NC(=O)CC2(CCCCC2)SSC[C@@H](C(=O)N2CCC[C@H]2C(=O)N[C@@H](CCCNC(=N)N)C(=O)NCC(N)=O)NC(=O)[C@H](CC(N)=O)NC1=O [d(CH2)5 D-Phe^2 Nle^4 AVP, [1-(β-mercapto-β,β-cyclopentamethylenepropionic acid), 2-D-phenylalanine, 4-norleucine]-arginine vasopressin] ([dF]F[Nle]NCPRG-NH2; linker N-5 via X1)",7.12,
CC(C)[C@@H]1NC(=O)[C@H](Cc2ccccc2)NC(=O)[C@@H](Cc2ccccc2)NC(=O)CC2(CCCCC2)SSC[C@@H](C(=O)N2CCC[C@H]2C(=O)N[C@@H](CCCNC(=N)N)C(=O)NCC(N)=O)NC(=O)[C@H](CC(N)=O)NC1=O [d(CH2)5 D-Phe^2 VAVP] ([dF]FVNCPRG-NH2; linker N-5 via X1),8.06,
"CC[C@@H](C)[C@H]1NC(=O)CC2(CCCCC2)SSC[C@@H](C(=O)N2CCC[C@H]2C(=O)N[C@@H](CCCNC(=N)N)C(=O)NCC(N)=O)NC(=O)[C@H](CC(N)=O)NC(=O)[C@H](CCC(N)=O)NC(=O)[C@H](Cc2ccccc2)NC1=O [d(CH2)5 D-Ile^2 AVP, [1-(β-mercapto-β,β-cyclopentamethylenepropionic acid), 2-D-isoleucine]-arginine vasopressin] ([dI]FQNCPRG-NH2; linker N-5 via X1)",6.96,
"CC[C@@H](C)[C@H]1NC(=O)CC2(CCCCC2)SSC[C@@H](C(=O)N2CCC[C@H]2C(=O)N[C@@H](CCCNC(=N)N)C(=O)NCC(N)=O)NC(=O)[C@H](CC(N)=O)NC(=O)[C@H](C)NC(=O)[C@H](Cc2ccccc2)NC1=O [d(CH2)5 D-Ile^2 Ala^4 AVP, [1-(β-mercapto-β,β-cyclopentamethylenepropionic acid), 2-D-isoleucine, 4-alanine]-arginine vasopressin] ([dI]FANCPRG-NH2; linker N-5 via X1)",7.76,
"CC[C@@H](C)[C@H]1NC(=O)CC2(CCCCC2)SSC[C@@H](C(=O)N2CCC[C@H]2C(=O)N[C@@H](CCCNC(=N)N)C(=O)NCC(N)=O)NC(=O)[C@H](CC(N)=O)NC(=O)[C@H]([C@@H](C)O)NC(=O)[C@H](Cc2ccccc2)NC1=O [d(CH2)5 D-Ile^2 Thr^4 AVP, [1-(β-mercapto-β,β-cyclopentamethylenepropionic acid), 2-D-isoleucine, 4-threonine]-arginine vasopressin] ([dI]FTNCPRG-NH2; linker N-5 via X1)",7.91,
